According to patent publication US20220401329A1, “ARTIFICIAL MELANIN NANOPARTICLES AND PRECURSOR MOLECULES AS HAIR DYES” (Northwestern University, priority 2019, published 2022):
Marks after values point to notes of the source that are not given here.

Key:
[1] = system: Agaricus bisporus tyrosinase (EC 1.14.18.1); assay: Monomer consumption in tyrosinase-mediated oxidation, by RP-HPLC; format: biochemical; conditions: 84 nM tyrosinase; for monomer consumption (%) after 2 h reaction: 0.5 mg/mL monomer in water
Procedure: The use of chemoenzymatic oxidative polymerization to produce multifunctional hair coatings has two main advantages. First, it is performed at neutral pH, avoiding the need for basic additives such as NH4OH. Second, it allows the use of substrates other than DA, such as phenolamines and amino acids. Mushroom tyrosinase has recently been used to promote polydopamine-based film deposition^40 and nanoparticles formation^41 starting from dopamine as well as natural phenolamines. […] As previously reported,^40 a 6 h reaction time was necessary to obtain effective darkening of the reaction solutions, performed either in water or Dulbecco's phosphate-buffered saline (DPBS) buffer (FIGS. 23A and 29). Across all tested monomers (L-Tyr, TA, DA), color darkening was associated with an initial increase, then decrease in UV-Vis absorption at 310 nm and 475 nm (FIGS. 23B and 30A-30D). A decrease in these signals, deriving from quinone and cyclic amine species respectively,^40 after the 6 h reaction is indicative of successful polymerization and deposition.^40 We next performed these reactions at 35° C. and at neutral pH, optimal reaction parameters for mushroom tyrosinase.^42 This led to a faster process with solutions turning brown/black several minutes after reaction initiation (FIG. 23A). […] This was confirmed by the rapid disappearance of the peak at 310 nm and 480 nm, as monitored by UV-Vis (FIGS. 23B and 30A-30D). […] (FIGS. 23C and 31A-31B and Table 2). At five-fold higher concentration of 420 nM (50 U/mL) we observed almost complete monomer consumption (FIG. 23D). Monitoring Monomer Consumption via RP-HPLC studies. Monomer consumption after a 2 h reaction was determined by RP-HPLC. Reactions were performed either at rt or at 35° C. and using either 84 nM or […] (five fold) tyrosinase.

[2] = Solubility of monomers in water; format: physicochemical

Structure (SMILES) | monomer consumption (%) after 2 h reaction ([1]; 35° C.) [%] | monomer consumption (%) after 2 h reaction ([1]; rt) | substrate for mushroom tyrosinase ([1]; 0.5 mg/mL, 2 hours at 35° C. (FIG. 33A)) | solubility [2] [mM]
NCCc1ccc(O)cc1 [TA, tyramine] | 86 | 76% | – | –
NCCc1ccc(O)c(O)c1 [DA, dopamine] | 91 | 65% | – | –
N[C@@H](Cc1ccc(O)cc1)C(=O)O [L-Tyr, L-tyrosine] | 86 | 55%* | – | –
COC(=O)[C@@H](N)Cc1ccc(O)cc1 [L-Tyr-OMe, L-tyrosine methyl ester] | – | – | good substrate | ≥ 26
